Measurements from patent publication US20050009706A1, “Alpha-cyanoacrylates” (priority 2001, published 2005).

What was measured:
[1] = test system: Setaria faberii; assay: greenhouse experiment, pre-emergence treatment; format: in vivo
Description: (§1) The seeds of the test plants were sown separately for each species. For the pre-emergence treatment, directly after sowing the active compounds, which had been suspended or emulsified in water, were applied by means of finely distributing nozzles. The containers were irrigated gently to promote germination and growth and subsequently covered with transparent plastic hoods until the plant had rooted. This cover caused uniform germination of the test plants, unless this was adversely affected by reactive compounds. The application rate for a pre-emergence treatment was 0.5 or 1.0 kg of a.s. (active substance)/ha. Depending on the species, the plants were kept at 10-25° C. or 20-35° C. The test period extended over 2 to 4 weeks. During this time, the plants were tended, and their response to the individual treatments was evaluated. Evaluation was carried out using a scale from 0 to 100. 100 means no emergence of the plants, or complete destruction of at least the above-ground parts, and 0 means no damage, or normal course of growth. The plants used in the greenhouse experiments were of the following species: [table]

[2] = test system: Amaranthus retroflexus; assay: greenhouse experiment, pre-emergence treatment; format: in vivo; conditions: 1.0 kg/ha
Description: as §1

[3] = test system: Pharbitis purpurea; assay: greenhouse experiment, post-emergence treatment; format: in vivo
Description: (§2) The seeds of the test plants were sown separately for each species. For the post-emergence treatment, the test plants were first grown to a height of from 3 to 15 cm, depending on the plant habit, and only then treated with the active compounds which had been suspended or emulsified in water. The test plants were for this purpose either sown directly and grown in the same containers, or they were first grown separately as seedlings and transplanted into the test containers a few days prior to treatment. The application rate for the post-emergence treatment was 0.5 or 1.0 kg of a.s. (active substance)/ha. Depending on the species, the plants were kept at 10-25° C. or 20-35° C. The test period extended over 2 to 4 weeks. During this time, the plants were tended, and their response to the individual treatments was evaluated. Evaluation was carried out using a scale from 0 to 100. 100 means no emergence of the plants, or complete destruction of at least the above-ground parts, and 0 means no damage, or normal course of growth. The plants used in the greenhouse experiments were of the following species: [table]

[4] = test system: Setaria faberii; assay: greenhouse experiment, post-emergence treatment; format: in vivo; conditions: 1.0 kg/ha
Description: as §2

[5] = test system: Digitaria sanguinalis; assay: greenhouse experiment, pre-emergence treatment; format: in vivo
Description: as §1

| SMILES | effect on the harmful plant Setaria faberii ([1]; 1.0 kg/ha) | post-emergence activity against Pharbitis purpurea ([3]; 1.0 kg/ha) | melting point [°C] | also measured |
| --- | --- | --- | --- | --- |
| CCC(CC)/C(N)=C(\C#N)C(=O)OC(C)C [Example 4.1, Isopropyl (2Z)-3-amino-2-cyano-4-ethyl-2-hexenoate] | very good | very good | – | effect on the harmful plant Amaranthus retroflexus [2]: very good; post-emergence activity against Setaria faberii [4]: very good |
| CCC(C)OC(=O)/C(C#N)=C(\N)C(CC)CC (stereo not drawn) [Example 4.2] | – | – | – | effect on the harmful plant Setaria faberii ([1]; 0.5 kg/ha): very good; effect on the harmful plant Digitaria sanguinalis ([5]; 0.5 kg/ha): very good; post-emergence activity against Pharbitis purpurea ([3]; 0.5 kg/ha): very good |
| CCC(CC)/C(N)=C(\C#N)C(=O)OC(C)(C)C [Example 4.4] | very good | very good | 150 | – |
| CCC(CC)/C(N)=C(\C#N)C(=O)OCC(C)C [Example 4.5] | very good | very good | – | effect on the harmful plant Digitaria sanguinalis ([5]; 1.0 kg/ha): very good |
| CCC(CC)/C(N)=C(\C#N)C(=O)OCC(C)(C)C [Example 4.6] | very good | very good | – | – |
| CCC(CC)/C(N)=C(\C#N)C(=O)OC(C)C(C)C (stereo not drawn) [Example 4.7] | good | good | – | – |
| CCC(CC)/C(N)=C(\C#N)C(=O)OC1CCCC1 [Example 4.11] | very good | very good | 140 | – |
| CCC(CC)/C(N)=C(\C#N)C(=O)OC1CCCCC1 [Example 4.12] | – | – | 154 | – |
| CCC(CC)/C(N)=C(\C#N)C(=O)OCC1CC1 [Example 4.13] | very good | – | 125 | effect on the harmful plant Digitaria sanguinalis ([5]; 1.0 kg/ha): very good |
| CCC(CC)/C(N)=C(\C#N)C(=O)OC1COC1 [Example 4.14, 3-Oxetanyl (2Z)-3-amino-2-cyano-4-ethyl-2-hexenoat] | very good | – | – | – |
| C=CC(C)OC(=O)/C(C#N)=C(\N)C(CC)CC (stereo not drawn) [Example 4.16] | very good | – | – | effect on the harmful plant Digitaria sanguinalis ([5]; 1.0 kg/ha): very good |
| C#CCOC(=O)/C(C#N)=C(\N)C(CC)CC [Example 4.19] | – | – | – | effect on the harmful plant Setaria faberii ([1]; 0.5 kg/ha): very good; effect on the harmful plant Digitaria sanguinalis ([5]; 0.5 kg/ha): very good |
| C#CC(C)OC(=O)/C(C#N)=C(\N)C(CC)CC (stereo not drawn) [Example 4.20] | very good | very good | – | effect on the harmful plant Digitaria sanguinalis ([5]; 1.0 kg/ha): very good |
| CCC(CC)/C(N)=C(\C#N)C(=O)OCCC(F)(F)F [Example 4.22] | – | – | – | effect on the harmful plant Setaria faberii ([1]; 0.5 kg/ha): very good; effect on the harmful plant Digitaria sanguinalis ([5]; 0.5 kg/ha): very good |
| CCC(CC)/C(N)=C(\C#N)C(=O)OCCCl [Example 4.23] | very good | very good | – | – |
| CCC(CC)/C(N)=C(\C#N)C(=O)OCC(F)(F)F [Example 4.25] | very good | – | 115 | – |
| CCC(CC)/C(N)=C(\C#N)C(=O)OCCCCl [Example 4.29] | good | very good | – | – |
| CCC(CC)/C(N)=C(\C#N)C(=O)OC(C)CCl (stereo not drawn) [Example 4.30] | very good | – | – | effect on the harmful plant Digitaria sanguinalis ([5]; 1.0 kg/ha): very good |

| SMILES | effect on the harmful plant Setaria faberii ([1]; 1.0 kg/ha) | post-emergence activity against Pharbitis purpurea ([3]; 1.0 kg/ha) | melting point [°C] | also measured |
| --- | --- | --- | --- | --- |
| CCC(CC)/C(N)=C(\C#N)C(=O)OC(C)C#N (stereo not drawn) [Example 4.35] | good | – | – | – |
| CCC(CC)/C(N)=C(\C#N)C(=O)OC1CCOC1 (stereo not drawn) [Example 4.38] | – | – | 105 to 110 | – |
| CCC(CC)/C(N)=C(\C#N)C(=O)O [Example 4.42, (2Z)-3-Amino-2-cyano-4-ethyl-2-hexene acid] | – | – | 165 | – |
| CCC(CC)/C(N)=C(\C#N)C(=O)OC1CCCO1 (stereo not drawn) [Example 4.43] | – | – | 180 | – |
| CCC(COC)/C(N)=C(\C#N)C(=O)OC(C)C (stereo not drawn) [Example 5.2] | very good | very good | – | – |
| CCCC(CC)/C(N)=C(\C#N)C(=O)OC(C)C (stereo not drawn) [Example 5.3] | very good | – | – | – |
| CCCC(CCC)/C(N)=C(\C#N)C(=O)OC(C)C [Example 5.6] | – | very good | – | – |
| C=CCC(CC)/C(N)=C(\C#N)C(=O)OC(C)C (stereo not drawn) [Example 5.7] | very good | very good | – | effect on the harmful plant Digitaria sanguinalis ([5]; 1.0 kg/ha): very good |
| C=CCC(CC=C)/C(N)=C(\C#N)C(=O)OC(C)C [Example 5.9] | – | very good | – | – |
| C#CCC(CC)/C(N)=C(\C#N)C(=O)OC(C)C (stereo not drawn) [Example 5.10] | very good | – | – | – |
| C#CCC(CC=C)/C(N)=C(\C#N)C(=O)OC(C)C (stereo not drawn) [Example 5.11] | – | very good | – | – |
| CCC(CC)/C(N)=C(\C#N)C(N)=O [Example 6.1] | – | – | 125 | – |
| CCC(CC)/C(N)=C(\C#N)C(=O)NC [Example 6.2] | – | – | 146 | – |
| CCNC(=O)/C(C#N)=C(\N)C(CC)CC [Example 6.3] | very good | very good | 104 to 106 | – |
| CCC(CC)/C(N)=C(\C#N)C(=O)NC(C)C [Example 6.5] | – | – | 164 | – |
| CCC(CC)/C(N)=C(\C#N)C(=O)N(C)C [Example 6.21] | – | – | 132 | – |
| CCNC(=O)/C(C#N)=C(\N)C(CC)CC [Example 6.29] | – | – | 124 | – |
| CCC(CC)/C(N)=C(\C#N)C(=O)SC(C)C [Example 7.3] | – | very good | 115 | – |
